Results from patent US20180099931A1 (AbbVie S.à.r.l., priority 2016, published 2018).
Like-named read-outs stand apart in the source and are kept apart here.

Target: T1, F508delCFTR (Homo sapiens, UniProt P13569, DEL508-508)
T1 construct: expressed in transfected cells; host or cells: CFBE41o- human lung-derived epithelial cells (CFBE4lo-F508delCFTR-HRP), doxycycline-inducible
Assay: Cell Surface Expression-Horse Radish Peroxidase (CSE-HRP) Assay;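 on Maximum % activity (with co-corrector): co-corrector and positive control are both the same reference corrector at 2 µM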;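 on Maximum % activity (without co-corrector): percent of the 2 µM on-plate positive control corrector response above DMSO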
Format: cell-based
Details: for Emax / Maximum % activity (with co-corrector): maximum at any tested concentration, normalized to on-plate positive control; for Emax: read-out: Maximum % activity (without co-corrector)
Protocol: Cell Surface Expression-Horse Radish Peroxidase (CSE-HRP) Assay;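 on Maximum % activity (with co-corrector): co-corrector and positive control are both the same reference corrector at 2 µM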;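 on Maximum % activity (without co-corrector): percent of the 2 µM on-plate positive control corrector response above DMSO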
The development was achieved by expressing the F508delCFTR mutation along with a horseradish peroxidase (HRP) in the fourth exofacial loop, and then measuring the HRP activity using luminescence readout from these cells, CFBE4lo-F508delCFTR-HRP, that were incubated overnight with the test corrector compounds, either without or with the co-corrector. […] The test compounds were then added either without or with a co-corrector at the required concentrations and further incubated for 18-24 hours at 33° C. The highest concentration tested was 20 μM with an 8-point concentration response curve using a 3-fold dilution in both the test compound without or with the co-corrector. Three replicate plates were run to determine one EC50. All plates contained negative controls (dimethyl sulfoxide, DMSO) and positive control (2 μM of 3-[(2R,4R)-4-({[1-(2,2-difluoro-1,3-benzodioxol-5-yl)cyclopropyl]carbonyl}amino)-7-methoxy-3,4-dihydro-2H-chromen-2-yl]benzoic acid) as well as on-plate concentration response of the positive control. […] The raw counts from the experiment were analyzed using Accelrys® Assay Explorer v3.3.
1−[3*SDPositive Control+3*SDNegative Control/Absolute(MeanPositive Control−MeanNegative Control)]
wherein “SD” is standard deviation.
The % activity measured at each of the 8 test concentrations of the test compound added either without or with a co-corrector (2 μM of 3-[(2R,4R)-4-({[1-(2,2-difluoro-1,3-benzodioxol-5-yl)cyclopropyl]carbonyl}amino)-7-methoxy-3,4-dihydro-2H-chromen-2-yl]benzoic acid) was normalized to the on-plate positive control using the following formulae:
% activity(Test compound without co-corrector)=[(test compound without co-corrector response−DMSO response)/(positive control response−DMSO response)]*100
% activity(Test compound with co-corrector)=[(test compound with co-corrector response−DMSO response)/(positive control response−DMSO response)]*100
The maximum % activity achieved for the test compound either without or with a co-corrector at any tested concentration is presented in Table 4 along with the respective EC50's calculated using the following general sigmoidal curve with variable Hill slope equation (described as Model 42 in the Accelrys® Assay Explorer v3.3 software):
General sigmoidal curve with concentration, response, top, bottom, EC50 and Hill slope. This model describes a sigmoidal curve with an adjustable baseline, a. The equation can be used to fit curves where response is either increasing or decreasing with respect to the independent variable, “x”.
“x” is a concentration of drug under test. “y” is the response. “a” is the maximum response, and “d” is the minimum response “c” is the inflection point (EC50) for the curve. That is, “y” is halfway between the lower and upper asymptotes when x=c. “b” is the slope-factor or Hill coefficient. The sign of b is positive when the response increases with increasing dose and is negative when the response decreases with increasing dose (inhibition).

[1] = test compound without co-corrector
[2] = test compound without co-corrector, read-out: EC50 (without co-corrector)
[3] = with co-corrector (2 μM of 3-[(2R,4R)-4-({[1-(2,2-difluoro-1,3-benzodioxol-5-yl)cyclopropyl]carbonyl}amino)-7-methoxy-3,4-dihydro-2H-chromen-2-yl]benzoic acid)
[4] = with co-corrector (2 μM of 3-[(2R,4R)-4-({[1-(2,2-difluoro-1,3-benzodioxol-5-yl)cyclopropyl]carbonyl}amino)-7-methoxy-3,4-dihydro-2H-chromen-2-yl]benzoic acid), read-out: EC50 (with co-corrector)
[5] = CSE-HRP, test compound without co-corrector, read-out: EC50 (without co-corrector)
[6] = CSE-HRP, with co-corrector (2 μM of 3-[(2R,4R)-4-({[1-(2,2-difluoro-1,3-benzodioxol-5-yl)cyclopropyl]carbonyl}amino)-7-methoxy-3,4-dihydro-2H-chromen-2-yl]benzoic acid), read-out: EC50 (with co-corrector)
[7] = CSE-HRP, with co-corrector (2 μM)

T1 sequence (P13569 with tags, fused parts or gaps DEL508-508): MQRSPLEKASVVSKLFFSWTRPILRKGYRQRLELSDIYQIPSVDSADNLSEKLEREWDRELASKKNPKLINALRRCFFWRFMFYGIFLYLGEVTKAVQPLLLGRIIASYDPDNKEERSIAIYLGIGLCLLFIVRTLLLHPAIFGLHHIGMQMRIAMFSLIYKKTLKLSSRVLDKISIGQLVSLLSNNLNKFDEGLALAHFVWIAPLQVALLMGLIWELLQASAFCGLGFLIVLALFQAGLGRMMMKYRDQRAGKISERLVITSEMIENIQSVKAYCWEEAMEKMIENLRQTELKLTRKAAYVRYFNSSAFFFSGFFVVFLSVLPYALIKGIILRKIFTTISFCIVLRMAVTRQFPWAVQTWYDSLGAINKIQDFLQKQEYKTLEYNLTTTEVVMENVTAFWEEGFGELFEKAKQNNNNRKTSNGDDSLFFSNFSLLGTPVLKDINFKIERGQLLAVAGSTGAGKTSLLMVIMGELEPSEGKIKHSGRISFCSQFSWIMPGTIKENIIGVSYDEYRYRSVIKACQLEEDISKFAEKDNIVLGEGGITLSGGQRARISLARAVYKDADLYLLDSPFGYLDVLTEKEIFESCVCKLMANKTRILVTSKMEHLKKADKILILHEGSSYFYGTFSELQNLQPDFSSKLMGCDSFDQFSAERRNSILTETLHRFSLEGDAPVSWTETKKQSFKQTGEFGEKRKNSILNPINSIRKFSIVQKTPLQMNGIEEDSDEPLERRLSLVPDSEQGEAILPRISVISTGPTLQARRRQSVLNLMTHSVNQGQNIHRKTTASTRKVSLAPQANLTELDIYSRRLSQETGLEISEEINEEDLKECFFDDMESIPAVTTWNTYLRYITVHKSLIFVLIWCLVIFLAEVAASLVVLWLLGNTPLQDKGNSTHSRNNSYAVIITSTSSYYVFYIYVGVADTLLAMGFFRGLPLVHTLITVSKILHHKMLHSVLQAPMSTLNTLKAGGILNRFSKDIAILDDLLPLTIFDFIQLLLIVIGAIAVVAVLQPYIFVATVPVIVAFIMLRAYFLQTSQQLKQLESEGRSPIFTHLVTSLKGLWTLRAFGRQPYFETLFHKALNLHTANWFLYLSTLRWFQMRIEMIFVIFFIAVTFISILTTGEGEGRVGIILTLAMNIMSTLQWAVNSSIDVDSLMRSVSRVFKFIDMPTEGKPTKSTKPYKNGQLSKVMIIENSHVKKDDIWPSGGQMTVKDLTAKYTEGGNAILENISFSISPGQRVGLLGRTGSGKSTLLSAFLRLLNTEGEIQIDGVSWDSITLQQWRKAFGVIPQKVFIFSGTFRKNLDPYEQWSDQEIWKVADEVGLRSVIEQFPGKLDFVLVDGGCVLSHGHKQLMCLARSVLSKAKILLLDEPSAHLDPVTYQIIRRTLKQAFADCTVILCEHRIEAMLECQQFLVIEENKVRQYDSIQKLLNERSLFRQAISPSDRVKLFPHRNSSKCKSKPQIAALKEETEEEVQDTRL

| Emax [1] [%] | EC50 [2] [nM] | Maximum % activity (with co-corrector) [3] | EC50 [4] [nM] | Maximum % activity (with co-corrector) (with co-corrector (2 μM)) | Emax (without co-corrector) [%] | EC50 [5] [nM] | EC50 [6] [nM] | Maximum % activity (with co-corrector) [7] | Emax (CSE-HRP, without co-corrector) [%] | SMILES |
| --- | --- | --- | --- | --- | --- | --- | --- | --- | --- | --- |
| 100 to 200 | 1000 to 10000 | +++ (≥350) | 1000 to 10000 | – | – | – | – | – | – | Cc1cc(C(F)(F)F)cc(N[C@H]2[C@H](C(C)(C)C)[C@@H](C(=O)O)N(C(=O)C3CCCCC3)[C@H]2c2ccccc2C)n1 [II-575] |
| > 200 | 1000 to 10000 | +++ (≥350) | 1000 to 10000 | – | – | – | – | – | – | COc1ccc(C(C)(C)C)cc1CN[C@H]1[C@H](C(C)(C)C)[C@@H](C(=O)O)N(C(=O)C2CC(C)(C)C2)[C@H]1c1ccccc1 [II-328] |
| – | 1000 to 10000 | – | 1000 to 10000 | +++ (≥350) | 100 to 200 | – | – | – | – | COc1nc(C(C)(C)C)ccc1CN[C@H]1[C@H](C(C)(C)C)[C@@H](C(=O)O)N(C(=O)[C@@H]2CCCCO2)[C@H]1c1ccccc1F [Example I-231] |
| – | 1000 to 10000 | – | 1000 to 10000 | +++ (≥350) | 100 to 200 | – | – | – | – | COc1ccc(C(C)(C)C)cc1CN[C@H]1[C@H](C(C)(C)C)[C@@H](C(=O)O)N(C(=O)[C@@H]2OCC[C@@H]2C(C)C)[C@H]1c1ccccc1 (relative stereo) [Example I-104, (2S,3S,4S,5S)-3-tert-butyl-4-{[(5-tert-butyl-2-methoxyphenyl)methyl]amino}-5-phenyl-1-[(2R*,3R*)-3-(propan-2-yl)oxolane-2-carbonyl]pyrrolidine-2-carboxylic acid] |
| – | 1000 to 10000 | – | 1000 to 10000 | +++ (≥350) | < 100 | – | – | – | – | Cc1cc(C(F)(F)F)cc(N[C@@H]2[C@@H](C(C)(C)C)[C@H](C(=O)O)N(C(=O)C3CCCCC3)[C@@H]2c2ccccc2)n1 (racemic) [Example 1, rac-(2R,3R,4R,5R)-3-tert-butyl-1-(cyclohexanecarbonyl)-4-{[6-methyl-4-(trifluoromethyl)pyridin-2-yl]amino}-5-phenylpyrrolidine-2-carboxylic acid] |
| – | – | – | – | – | – | 1000 to 10000 | 1000 to 10000 | +++ (≥350) | 100 to 200 | COc1ccc(C(C)(C)C)cc1CN[C@H]1[C@H](C(C)(C)C)[C@@H](C(=O)O)N(C(=O)[C@H](C)OC)[C@H]1c1ccccc1 [II-308] |
| – | 1000 to 10000 | – | 1000 to 10000 | +++ (≥350) | > 200 | – | – | – | – | COc1ccc(C(C)(C)C)cc1CN[C@H]1[C@H](C(C)(C)C)[C@@H](C(=O)O)N(C(=O)[C@@H]2C[C@H]2c2cccnc2)[C@H]1c1ccccc1 (relative stereo) [Example I-139] |
| – | – | – | – | – | – | < 1000 | < 1000 | +++ (≥350) | 100 to 200 | COc1ccc(C(C)(C)C)cc1CN[C@H]1[C@H](C(C)(C)C)[C@@H](C(=O)O)N(C(=O)c2cc(-c3ccccc3)nn2C)[C@H]1c1ccccc1 [II-226] |
| – | 1000 to 10000 | – | 1000 to 10000 | +++ (≥350) | 100 to 200 | – | – | – | – | COc1ccc(C(C)(C)C)cc1CN[C@H]1[C@H](C(C)(C)C)[C@@H](C(=O)O)N(S(=O)(=O)c2ccccc2)[C@H]1c1ccccc1 [Example 15, (2S,3S,4S,5S)-1-(benzenesulfonyl)-3-tert-butyl-4-{[(5-tert-butyl-2-methoxyphenyl)methyl]amino}-5-phenylpyrrolidine-2-carboxylic acid] |
| 100 to 200 | 1000 to 10000 | +++ (≥350) | 1000 to 10000 | – | – | – | – | – | – | COc1ccc(C(C)(C)C)cc1CN[C@H]1[C@H](C(C)(C)C)[C@@H](C(=O)O)N(C(=O)C2(C)CCc3ccccc32)[C@H]1c1ccccc1 (stereo partly shown) [II-368] |
| – | – | – | – | – | – | 1000 to 10000 | 1000 to 10000 | +++ (≥350) | 100 to 200 | COc1ccc(C(F)(F)F)cc1CN[C@H]1[C@H](C(C)(C)C)[C@@H](C(=O)O)N(C(=O)[C@@H](C)OC)[C@H]1c1ccccc1 [II-120] |
| < 100 | 1000 to 10000 | ++ (≥150 and <350) | 1000 to 10000 | – | – | – | – | – | – | CC(C)(C)[C@@H]1[C@@H](Nc2cc(C#N)ccn2)[C@@H](c2ccccc2)N(C(=O)C2CCCCC2)[C@H]1C(=O)O (racemic) [III-42] |
| – | 1000 to 10000 | – | 1000 to 10000 | +++ (≥350) | < 100 | – | – | – | – | COc1ncc(C(F)(F)F)cc1CN[C@H]1[C@H](C(C)(C)C)[C@@H](C(=O)O)N(C(=O)C2CCCCC2)[C@H]1c1ccccc1OC(F)F [Example 14, (2S,3S,4S,5S)-3-tert-butyl-1-(cyclohexanecarbonyl)-5-[2-(difluoromethoxy)phenyl]-4-({[2-methoxy-5-(trifluoromethyl)pyridin-3-yl]methyl}amino)pyrrolidine-2-carboxylic acid] |
| – | 1000 to 10000 | – | 1000 to 10000 | +++ (≥350) | 100 to 200 | – | – | – | – | COc1cnc(C(C)(C)C)cc1CN[C@H]1[C@H](C(C)(C)C)[C@@H](C(=O)O)N(C(=O)C2CCCCC2)[C@H]1c1ccccc1 [Example 48, (2S,3S,4S,5S)-3-tert-butyl-4-{[(2-tert-butyl-5-methoxypyridin-4-yl)methyl]amino}-1-(cyclohexanecarbonyl)-5-phenylpyrrolidine-2-carboxylic acid] |
| – | 1000 to 10000 | – | < 1000 | +++ (≥350) | > 200 | – | – | – | – | COc1ncc(C(F)(F)F)cc1CN[C@H]1[C@H](C(C)(C)C)[C@@H](C(=O)O)N(C(=O)[C@@H]2CCCC(F)(F)C2)[C@H]1c1ccccc1 [Example 49, (2S,3S,4S,5S)-3-tert-butyl-1-[(1R)-3,3-difluorocyclohexane-1-carbonyl]-4-({[2-methoxy-5-(trifluoromethyl)pyridin-3-yl]methyl}amino)-5-phenylpyrrolidine-2-carboxylic acid] |
| > 200 | < 1000 | – | < 1000 | +++ (≥350) | – | – | – | – | – | COc1ccc(C(C)(C)C)cc1CN[C@H]1[C@H](C(C)(C)C)[C@@H](C(=O)O)N(C(=O)C2CCCC2(C)C)[C@H]1c1ccccc1 (stereo partly shown) [III-204] |
| – | – | – | – | – | – | < 1000 | < 1000 | +++ (≥350) | > 200 | COc1ccc(C(C)(C)C)cc1CN[C@H]1[C@H](C(C)(C)C)[C@@H](C(=O)O)N(C(=O)Cc2c(F)cccc2F)[C@H]1c1ccccc1 [II-201] |
| < 100 | 1000 to 10000 | +++ (≥350) | 1000 to 10000 | – | – | – | – | – | – | COc1ccc(C(C)(C)C)cc1CN[C@H]1[C@H](C(C)(C)C)[C@@H](C(=O)O)N(C(=O)[C@@H]2C[C@H]3CC[C@@H]2O3)[C@H]1c1cccnc1OC (relative stereo) [II-522] |
| < 100 | > 10000 | – | 1000 to 10000 | ++ (≥150 and <350) | – | – | – | – | – | CC(C)(C)[C@H]1[C@H](Nc2ccc(C3(C#N)CC3)cn2)[C@H](c2ccccc2)N(C(=O)C2CCCCC2)[C@@H]1C(=O)O [III-159] |
